Several values for one entry are separate records, joined by “and”; a condition that tells them apart may be missing. Equal values may be shown once.
Legend:
[1] = tested on: SF-295; assay: Cell survival by trypan blue vital exclusion staining, 2OHOA and oxythiamine; type: cell-based, human
Experimental: FIG. 18. Effect of metabolite C17:1n-9 on the action of 2OHOA. […] Cell viability was determined by vital exclusion staining with trypan blue.
(§1) To study whether the metabolite C17:1n-9 can participate in the action of 2OHOA, the effect of pre-incubation with oxythiamine on cell survival and 2OHOA-regulated proteins was studied. To do this, the cell survival of different glioma and non-tumor cell lines treated with 2OHOA (400 μM, 72 hours) and pre-incubated or not with 2 mM […] (90 minutes) was analyzed by counting the cells with the vital exclusion stain with trypan blue. In addition, Western-blot 2OHOA-modulated proteins were studied. In glioma cells, a significant decrease in cell survival was observed after incubation with 2 mM oxythiamine for 72 hours.

[2] = tested on: mouse astrocytes; conditions: 24 h, 400 μM
From the text: (§4) Analysis of the composition of fatty acids in different glioma and non-tumor cell lines after treatment with 2OHOA sodium salt. […] The black bar corresponds to the concentration of each fatty acid in the control, and the white bar corresponds to the concentration of the fatty acid after treatment with 2OHOA sodium salt. C17:0 margaric acid is included as an internal control. The columns show the mean±SEM of three independent experiments expressed in nmoles and normalized per mg of protein. Statistical significance is determined with a Student's t-test (**p<0.01, ***p<0.001 with respect to the control).

[3] = tested on: SF-295 glioma cells; conditions: human, 24 h, 400 μM
From the text: as §4

[4] = tested on: BIP, CHOP, cJun phosphorylation, phosphorylation of Akt, cyclin D3; assay: Western Blot of proliferation and death markers in glioma and non-tumor cell lines; type: cell-based; conditions: 200 μM C17:1n-9, 200 μM OA or 400 μM 2OHOA, 72 hours
Experimental: FIG. 16. Analysis of the effect of different fatty acids on markers of proliferation and death in different cell lines.
as §1

[5] = Fatty acids in rat plasma after oral 2OHOA sodium salt (gas chromatography); type: in vivo; conditions: for Maximum plasma concentration: 2 hours after oral 2OHOA sodium salt 2 g/Kg; for Maximum plasma concentration / Time of maximum plasma concentration: acute treatment
Experimental: FIG. 20. […] Statistical significance is determined with a Wilcoxon test (*p<0.05 and **p<0.01 with respect to baseline levels at 0 hours; $p<0.05 and $$p<0.01 with respect to 2OHOA fatty acid levels).
FIG. 21. […] Statistical significance is determined by a Wilcoxon test (*p<0.05 and **p<0.01 with respect to baseline levels at 0 hours; $p<0.05 and $$p<0.01 with respect to 2OHOA fatty acid levels).
For the present study, 2 g of 2OHOA/Kg sodium salt was administered to rats 12-14 weeks of age orally for 15 days. Subsequently, plasma samples were extracted at different times (0, 1, 2, 3, 4, 6, 8 and 24 h) from day 1 (acute treatment) and 15 (chronic treatment). Finally, the fatty acid profile in plasma samples was analyzed by gas chromatography.

[6] = tested on: MRC-5 (human fibroblasts); conditions: 24 h, 400 μM
From the text: as §4

[7] = Fatty acids in plasma of patients with advanced glioma treated with 2OHOA sodium salt; type: in vivo, human; conditions: for Time of peak plasma levels: first day
Experimental: FIG. 24. Analysis of composition in fatty acids in human patients with advanced glioma. (A) Representative chromatogram of the fatty acid composition of a patient with glioma responsive to treatment with 2OHOA sodium salt (12 g/day, 21 days) and determined in plasma samples obtained at different treatment times (0, 4 and 360 hours, 15 days) by gas chromatography. […] The C17:0 margaric acid in the chromatograms was quantified as internal control.
Plasma samples were obtained at different times (0, 2, 4, 6, 8 hours and after 8, 15, 21 and 28 days after treatment with 2OHOA) and were subsequently given for fatty acid analysis using the gas chromatography technique.

[8] = defined in preclinical studies; cited from earlier work
[9] = tested on: SF-295 glioma cells; assay: Cell viability by violet crystal staining, 72 hours; type: cell-based, human; conditions: for IC50: SF-295, 72 hours
Experimental: FIG. 14. Effect of 2OHOA sodium salt, OA and C17:1n-9 sodium salt on cell viability and proliferation of glioma cells. […] Viability was determined by violet crystal staining.
(§2) In order to evaluate the antiproliferative effect of C17:1n-9, its IC50, which corresponds to the amount of a compound needed to reduce cell viability in vitro by 50%, as well as its effect on the regulation of proteins involved in the mechanism of action of 2OHOA, were determined. […] Upon completion of treatment, IC50 was determined by violet crystal staining technique. […] The IC50 of 2OHOA was 1000 μM for non-tumor cells, MRC-5 and astrocytes.

[10] = tested on: MRC-5 (human fibroblasts); assay: as above; type: cell-based
Experimental: (§3) FIG. 15. Effect of 2OHOA sodium salt, C17:1n-9 sodium salt, and OA on cell viability and proliferation of non-tumor cells. Non-tumor cell viability curves (A1-A3) MRC-5 (human fibroblasts); and (B1-B3) mouse astrocytes treated with increasing doses of 2OHOA sodium salt (0-1000 μM) (A1 and B1); OA (0-300 μM) (A2 and B2); and C17:1n-9 sodium salt (0-300 μM) (A3 and B3) for 72 hours. Viability was determined by violet crystal staining.
as §2

[11] = tested on: mouse astrocytes; assay: as above; type: cell-based; conditions: Astrocyte, Astrocytes non-tumor cells
Experimental: as §3, §2

[12] = tested on: MRC-5 (human fibroblasts); assay: Fatty acid composition by gas chromatography after treatment with 2OHOA; conditions: MRC-5, 2OHOA 400 μM for 24 hours
From the text: as §4

[13] = tested on: mouse astrocytes; assay: as above; conditions: 2OHOA 400 μM for 24 hours
From the text: as §4

[14] = patients, 12 g/day 2OHOA sodium salt

SMILES: CCCCCCCC/C=C\CCCCCCC(O)C(=O)O (stereo not shown) [2OHOA, 2-hydroxyoleic acid]
- Cell death ([1]; SF-295, 2OHOA 400 μM, 72 hours): 23.97±1.25%
- Cell death ([1]; SF-295, 2OHOA combined with 2 mM oxythiamine): 10.85±0.58%
- Recovery in cell viability ([1]; SF-295, 2OHOA combined with 2 mM oxythiamine vs 2OHOA alone): 17.25%
- 2OHOA accumulated more than its metabolite C17:1n-9 [2]: 38.27%
- Level of the fatty acid in cells after treatment with 2OHOA [3]: 9.21 nmol/mg
- Effect on signaling proteins (Western Blot) [4]: increased levels of BIP, CHOP and cJun phosphorylation and decreased phosphorylation of Akt and cyclin D3 levels
- Maximum plasma concentration [5]: 26.23±5.79 nmol/ml plasma
- Time of maximum plasma concentration ([5]; oral 2OHOA sodium salt 2 g/Kg): 2 h
- concentration at 8 h ([5]; plasma, oral 2OHOA sodium salt 2 g/Kg, read-out: Plasma level after 8 hours): 7.12 ± 1.56 µM
- concentration at 0 h ([5]; plasma, oral 2OHOA sodium salt 2 g/Kg, read-out: Plasma level at 0 hours (initial levels, prior to administration)): 1220 ± 330 nM
- concentration at 24 h ([5]; plasma, oral 2OHOA sodium salt 2 g/Kg, read-out: Plasma level at 24 hours (trough values)): 2800 ± 690 nM
- 2OHOA accumulated more than its metabolite C17:1n-9 [6]: 46%
- concentration at 4 h ([7]; human, plasma, oral, patients (responders and non-responders), 12 g/day 2OHOA sodium salt, read-out: Plasma level 4 hours after the first intake): 53.1 ± 6.52 µM
- concentration at 8 h ([7]; human, plasma, oral, patients, 12 g/day 2OHOA sodium salt, read-out: Plasma level 8 hours after treatment): 25.4 ± 3.99 µM
- concentration at 360 h ([7]; human, plasma, oral, patients, 12 g/day 2OHOA sodium salt, read-out: Plasma level after 15 days (360 hours) of treatment): 185 ± 25.6 µM
- concentration at 192 h ([7]; human, plasma, oral, patients, 12 g/day 2OHOA sodium salt, read-out: Plasma level at 8 days of treatment (192 hours)): 25.4 ± 3.99 µM
- Plasma level after 15 days (360 hours) of treatment [7, 14]: 141.10±16.35 nmol/ml plasma
- Plasma level at 8 days of treatment (192 hours) [7, 14]: 25.39±3.99 nmol/ml plasma
- Plasma level at 21 days of treatment [7, 14]: 184.70±25.60 nmol/ml plasma
- Time of peak plasma levels [7, 14]: 4 h
- Maximum tolerated dose [8]: 2 g/kg
- IC50 ([9]; Homo sapiens): 399 ± 11.5 µM
- IC50 of 2OHOA relative to that of metabolite C17:1n-9 ([9]; SF-295): 1.60 times
- IC50 of 2OHOA relative to that of non-hydroxy analogue OA ([9]; SF-295): 1.56 times
- IC50 ([10]; Homo sapiens, MRC5, MRC-5 non-tumor cells): > 1000 µM
- IC50 [11]: > 1 mM

SMILES: CCCCCCCC/C=C\CCCCCCC(=O)O [C17:1n-9, 8Z-heptadecenoic acid]
- Level of the fatty acid in cells after treatment with 2OHOA [12]: 14.00 nmol/mg
- Level of the fatty acid in cells after treatment with 2OHOA [13]: 7.58 ± 0.70 nmol/mg and 7.58 nmol/mg
- Effect on signaling proteins (Western Blot) [4]: did not produce changes in any of these proteins
- Maximum plasma concentration [5]: 60.47±6.53 nmol/ml plasma
- Plasma level after 8 hours ([5]; oral 2OHOA sodium salt 2 g/Kg): 23.31±5.18 nmol/mL plasma
- Plasma level at 0 hours (initial levels, prior to administration) ([5]; oral 2OHOA sodium salt 2 g/Kg): 8.45±2.52 nmol/ml plasma
- Plasma level at 24 hours (trough values) ([5]; oral 2OHOA sodium salt 2 g/Kg): 14.03±2.20 nmol/ml plasma and 14.03±2.21 nmol/ml plasma
- Time of maximum plasma concentration ([5]; oral 2OHOA sodium salt 2 g/Kg): 2 h
- Plasma level 4 hours after the first intake ([7]; patients (responders and non-responders), 12 g/day 2OHOA sodium salt): 122.80±10.61 nmol/ml of plasma
- C17:1n-9 plasma levels relative to 2OHOA ([7]; patients at 21 days of treatment): 1.90 times
- C17:1n-9 plasma levels relative to 2OHOA ([7]; patients treated for 8 days): 3.66 times
- C17:1n-9 plasma levels relative to 2OHOA ([7]; patients treated for 15 days): 2.20 times
- Plasma level 8 hours after treatment [7, 14]: 92.89±9.39 nmol/ml of plasma
- Plasma level at 21 days of treatment [7, 14]: 366.9±72.47 nmol/ml plasma
- Time of peak plasma levels [7, 14]: 4 h
- IC50 [9]: 249 ± 6.02 µM
- IC50 ([10]; MRC-5 non-tumor cells): 248 ± 7.28 µM
